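Interpolation was linear, between the two tested concentrations surrounding the appropriate level; five concentrations were tested over 48 hours in 96-well plates. TGI is the concentration that stops growth completely.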
Assays:
Assay in all cases: NCI anticancer screen, dose series, 48 h
HOP-62 NSCLC = system: HOP-62 NSCLC
K-562 leukemia = system: K-562 leukemia
MALME-3M melanoma = system: MALME-3M melanoma
NCI-H460 lung = system: NCI-H460 lung
OVCAR-3 ovarian = system: OVCAR-3 ovarian
OVCAR-5 ovarian = system: OVCAR-5 ovarian
SF-268 CNS = system: SF-268 CNS
SF-539 CNS = system: SF-539 CNS
SK-MEL-28 melanoma = system: SK-MEL-28 melanoma
SR leukemia = system: SR leukemia

Structure (SMILES)	TGI (HOP-62 NSCLC) [µM]	TGI (K-562 leukemia) [µM]	TGI (MALME-3M melanoma) [µM]	TGI (NCI-H460 lung) [µM]	TGI (OVCAR-3 ovarian) [µM]	TGI (OVCAR-5 ovarian) [µM]	TGI (SF-268 CNS) [µM]	TGI (SF-539 CNS) [µM]	TGI (SK-MEL-28 melanoma) [µM]	TGI (SR leukemia) [µM]
CSc1nc(NC2CC2)c2c(n1)Sc1nc3ccccc3n1N=C2	39.6	> 100	50.9	> 100	40.3	> 100	80.7	27.4	> 100	> 100
Cc1cc(C)c2c(=O)n(CC(O)CN3CCN(c4ncccn4)CC3)sc2n1 (stereo not given)	42	> 100	37.5	31.2	34.5	31.1	32.6	31.6	36.6	36.5
O=C(NC12CC3CC(CC(C3)C1)C2)n1cnc2cncnc21	51.5	> 100	78.6	> 100	47	> 100	> 100	54.5	> 100	62.4
CCOC(=O)C(C(N)=O)c1nc2cc([N+](=O)[O-])ccc2nc1/C=C(\O)c1ccc(C)cc1 (stereo not given)	33.9	12.1	> 100	58.1	31.1	> 100	35.8	36.5	> 71.1	25.9
CS(=O)(=O)c1ccc(C2=C(c3ccccc3)C(=O)OC2)cc1	> 100	> 100	> 100	> 100	> 100	> 100	> 100	> 100	> 100	> 100
CCCc1c(OC)c(O)c2c(=O)cc(OC)c3c4c(OC)cc(=O)c5c(O)c(OC)c(CCC)c(c1c23)c54	18.9	> 100	10.7	18.1	13.1	51.1	19.6	34.7	21.1	> 100
COc1ccc(NC(=O)c2cc(NC(=O)/C=C/c3ccccc3)c(OC)c(OC)c2)cc1	> 100	> 100	99.6	> 100	> 100	> 100	> 100	> 100	> 100	> 100
N.N.NCCCCN.O=C([O-])CCl.O=C([O-])CCl.O=C([O-])CCl.O=C([O-])CCl.[Pt+4].[Pt+4]	> 50	> 50	> 50	> 50	> 50	> 50	> 50	> 50	> 50	> 50
CCCCOP(=O)(OCCCC)C(NS(=O)(=O)c1ccccc1)(C(=O)OCC)C(F)(F)F (stereo not given)	61.4	59.9	45.4	> 100	59.5	> 100	> 100	38.3	78.8	> 100
C/C(=C/CC[C@](C)(OC1OC(CO)C(O)C(O)C1OC1OC(C)C(O)C(O)C1O)[C@H]1CC[C@]2(C)[C@@H]1CC[C@@H]1[C@@]3(C)CC[C@H](O)C(C)(C)[C@@H]3C[C@H](O)[C@]12C)CO (stereo not given in full)	> 100	> 100	> 100	> 100	> 100	> 100	> 100	> 100	> 100	> 100
NC(=O)c1ccc(N)nc1	> 247	> 400	> 400	> 400	> 400	> 400	> 400	28.3	> 400	> 400
O=C(NCCc1ccc(F)cc1)c1cc(/C=C/c2cc(O)ccc2O)ccc1O	14.8	> 29.2	5.92	40	8.44	22.3	12.2	5.84	> 25.3	> 30
CC(CCC(=O)O)(c1cc(Br)c(O)c(Br)c1)c1cc(Br)c(O)c(Br)c1	> 100	> 100	> 100	> 100	> 100	> 100	> 100	> 100	> 100	> 100
C/C(=N\NC(=S)N/N=C(\C)c1ccccn1)c1ccccn1	5.28	7.92	> 100	6.46	> 100	> 100	16.3	8.83	> 100	> 100
CCOC(=O)C(NC(=O)Nc1ccccc1)(Nc1cccc(Cl)c1)C(F)(F)F (stereo not given)	> 100	> 100	> 100	> 100	> 100	> 100	> 100	> 100	> 100	> 100
COc1cc(CNc2nc3cc(C(F)(F)F)ccc3nc2C(=O)O)cc(OC)c1OC	59.3	61	> 100	82	64.2	> 100	> 100	37.6	> 100	> 100
Cc1cc([C@H](C#N)c2nc3ccccc3s2)nc(Cl)n1	> 100	> 100	17	15.3	> 100	> 100	24	64	39.1	> 100
